Earlier results in patent US20060009360A1, “New adjuvant composition” (priority 2004, published 2006).

Settings: glyphosate in acid form

## O=C(O)CNCP(=O)(O)O [glyphosate, N-(phosphonomethyl)glycine]
  water solubility: about 1.2%
